Where only a bound is given, the exact number is not on record here.

In one assay the target is T1, ADRA1A (Homo sapiens, UniProt P35348).
T1 sequence (P35348 1-466): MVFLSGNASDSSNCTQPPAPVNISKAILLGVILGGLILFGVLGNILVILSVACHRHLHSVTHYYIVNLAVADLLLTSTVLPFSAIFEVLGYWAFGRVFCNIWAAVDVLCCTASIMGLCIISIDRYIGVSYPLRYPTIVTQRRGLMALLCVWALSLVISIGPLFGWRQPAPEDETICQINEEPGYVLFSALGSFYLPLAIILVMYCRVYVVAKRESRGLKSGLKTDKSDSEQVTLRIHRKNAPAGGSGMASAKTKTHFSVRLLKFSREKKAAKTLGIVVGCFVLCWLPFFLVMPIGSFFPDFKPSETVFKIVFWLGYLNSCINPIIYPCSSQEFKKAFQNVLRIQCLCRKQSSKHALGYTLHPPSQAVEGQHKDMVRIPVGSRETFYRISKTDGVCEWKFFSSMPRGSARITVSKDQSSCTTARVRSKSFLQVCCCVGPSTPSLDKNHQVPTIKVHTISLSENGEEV
The experiment in a line: SAFETYscan Calcium Flux ADRA1A Antagonist. Type of assay: cell-based. The source says: (§1) Supplement jm3c00155_si_002.xlsx, sheet "SAFETYScan" | column: RC50 (uM); Max Response
A general note: A change in cytosolic calcium serves as a functional read-out for many receptors and channels.

The target in another assay is DAT (Homo sapiens, UniProt Q01959). As to the kind of experiment: SAFETYscan Transporter DAT Blocker. In kind it is cell-based.
From the text: as §1

In a further assay the target is KvLQT1/minK (Homo sapiens, UniProt P51787). As to the kind of experiment: SAFETYscan Ion Channel KvLQT1/minK Opener. Type of assay: cell-based.
From the text: as §1

For the next assay, the target named is T2, HTR3A (Homo sapiens, UniProt P46098).
T2 sequence (P46098 24-478): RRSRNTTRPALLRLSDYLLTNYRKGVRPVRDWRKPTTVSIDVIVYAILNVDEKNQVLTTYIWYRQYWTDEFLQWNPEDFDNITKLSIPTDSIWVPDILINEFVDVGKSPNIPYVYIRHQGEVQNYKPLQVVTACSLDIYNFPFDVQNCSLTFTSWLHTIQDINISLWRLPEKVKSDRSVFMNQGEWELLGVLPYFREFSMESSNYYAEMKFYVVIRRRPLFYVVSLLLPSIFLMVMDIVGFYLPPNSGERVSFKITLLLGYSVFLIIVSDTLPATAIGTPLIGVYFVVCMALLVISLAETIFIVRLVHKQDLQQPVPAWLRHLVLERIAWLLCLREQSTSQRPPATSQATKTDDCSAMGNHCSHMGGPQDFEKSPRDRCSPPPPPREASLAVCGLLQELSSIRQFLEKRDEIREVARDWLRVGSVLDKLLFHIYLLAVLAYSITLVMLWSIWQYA
As to the kind of experiment: SAFETYscan Ion Channel HTR3A Blocker. In kind it is cell-based.
From the text: as §1

A further assay addresses HTR2A (Homo sapiens, UniProt P28223). As to the kind of experiment: SAFETYscan Calcium Flux HTR2A Antagonist. In kind it is cell-based.
From the text: as §1

In another assay the test system is ARID3A mRNA. The experiment in a line: ARID3A mRNA in Karpas 422 tumour xenografts (quantitative RT-PCR). In kind it is in vivo, mouse. The note with it: 50 mg/kg PO, 12 h post dose, TaqMan PCR. How it is done:
frozen in liquid nitrogen, dedicating one half to PK analysis and the other half to pharmacodynamic analysis (PD). All frozen material was permanently stored in a -80°C freezer.
5.3.5 Tumour lysis and Wes method
Tumours were lysed in lysis buffer (50 mM Tris-HCl, pH 7.4, 150 mM NaCl, 1% Triton X-100 (v/v), 1 mM PMSF, 1 mM activated sodium vanandate, 1 mM EDTA, phosphatase inhibitors 2 and 3 (1:50m dilution) and protease cocktail (1:100 dilution)) using reinforced homogenizing tubes containing metal beads using a Precellys 24 with cryolys cooling at 6000 rpm, 2 × 20 s (Stretton Scientific). Lysates were incubated on ice for 15 minutes, spun at 14000 rpm at 4 °C for 10 minutes and supernatants collected and aliquoted.
Samples were stored at -80 °C until use. Protein concentration was determined by diluting 1:10 with lysis buffer and measuring on Direct Detect® spectrometer according to manufacturer’s instructions.
Protein lysates were diluted to 0.0875 mg/ml with 0.1x sample buffer and run on Wes 12-230 kDa kit according to manufacturer’s instructions (ProteinSimple) with multiplexing BCL6 (CST14895 at 1:150 dilution) and GAPDH (CST 2118 at 1:50 dilution). Data was analysed using Compass for SW software. […]
5.3.6 Quantitative RT-PCR […]
(ThermoFisher Scientific). ARID3A expression relative to vehicle-treated tumours was determined using […]
A general note: In qPCR the cycle at which signal appears reflects the starting amount.

Another assay deals with SU-DHL-4. The experiment in a line: 14-day cell proliferation assay, SU-DHL-4. Type of assay: cell-based. The note with it: Homo sapiens, 14-day assay. An excerpt: DMSO final concentration.
After a short centrifugation the
(1st emission filter) / 450-80 nm (2nd emission filter). The % inhibition at each test concentration was […]
sigmoidal four-parameter logistic fit equation.
2.3 Cell proliferation assay
Aldrich) supplemented with 10% FBS (Gibco). Compounds were initially dispensed into 96-well U-bottom […]
transferred onto the cells.
Assay plates containing cells
(Beckman Coulter). The volume of medium containing 2500 cells in the control well was calculated and this volume of cells was transferred from every well of the assay plates to the corresponding well of the fresh plates containing compound. After 14 days, CellTiter Glo reagent (Promega) was added to the medium in each well of the assay plate at a ratio of 1:2, mixed on a plate shaker, then incubated at room temperature for 10 minutes. Luminescence was measured using an Envision plate reader (Perkin Elmer) and the relative luminescence at each compound concentration, compared to DMSO alone, was calculated. GI50 were determined using a 4-parameter curve fit in Dotmatics (Bishops Stortford, UK).

In the next assay the target is CNR2 (Homo sapiens, UniProt P34972). As to the kind of experiment: SAFETYscan cAMP CNR2 Agonist. Type of assay: cell-based. An excerpt: Supplement jm3c00155_si_002.xlsx, sheet "SAFETYScan" | column: RC50 (uM); Hill; Max Response
CNR2, sequence (P34972 whole entry): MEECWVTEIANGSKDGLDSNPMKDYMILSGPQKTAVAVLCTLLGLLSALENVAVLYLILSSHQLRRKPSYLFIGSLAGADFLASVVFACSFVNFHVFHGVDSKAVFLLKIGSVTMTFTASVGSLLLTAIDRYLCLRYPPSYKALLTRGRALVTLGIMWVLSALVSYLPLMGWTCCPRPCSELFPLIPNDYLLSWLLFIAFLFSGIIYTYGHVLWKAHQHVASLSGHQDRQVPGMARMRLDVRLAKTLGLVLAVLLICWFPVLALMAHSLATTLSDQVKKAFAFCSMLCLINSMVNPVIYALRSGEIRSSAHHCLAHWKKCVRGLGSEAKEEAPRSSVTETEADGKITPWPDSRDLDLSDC

HTR2A, sequence (P28223 whole entry): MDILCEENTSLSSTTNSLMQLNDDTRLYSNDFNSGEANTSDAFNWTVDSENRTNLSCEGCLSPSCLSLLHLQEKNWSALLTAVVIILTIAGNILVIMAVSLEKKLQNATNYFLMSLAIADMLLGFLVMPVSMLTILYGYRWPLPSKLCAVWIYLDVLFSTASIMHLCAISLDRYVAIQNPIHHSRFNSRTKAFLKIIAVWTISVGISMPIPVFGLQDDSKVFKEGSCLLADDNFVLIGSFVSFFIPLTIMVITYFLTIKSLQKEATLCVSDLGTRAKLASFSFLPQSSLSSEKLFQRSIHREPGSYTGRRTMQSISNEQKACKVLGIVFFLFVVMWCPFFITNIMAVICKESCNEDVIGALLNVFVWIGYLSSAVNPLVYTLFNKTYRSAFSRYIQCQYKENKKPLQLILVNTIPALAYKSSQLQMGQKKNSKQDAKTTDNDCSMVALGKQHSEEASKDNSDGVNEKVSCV
DAT, sequence (Q01959 whole entry, species assumed): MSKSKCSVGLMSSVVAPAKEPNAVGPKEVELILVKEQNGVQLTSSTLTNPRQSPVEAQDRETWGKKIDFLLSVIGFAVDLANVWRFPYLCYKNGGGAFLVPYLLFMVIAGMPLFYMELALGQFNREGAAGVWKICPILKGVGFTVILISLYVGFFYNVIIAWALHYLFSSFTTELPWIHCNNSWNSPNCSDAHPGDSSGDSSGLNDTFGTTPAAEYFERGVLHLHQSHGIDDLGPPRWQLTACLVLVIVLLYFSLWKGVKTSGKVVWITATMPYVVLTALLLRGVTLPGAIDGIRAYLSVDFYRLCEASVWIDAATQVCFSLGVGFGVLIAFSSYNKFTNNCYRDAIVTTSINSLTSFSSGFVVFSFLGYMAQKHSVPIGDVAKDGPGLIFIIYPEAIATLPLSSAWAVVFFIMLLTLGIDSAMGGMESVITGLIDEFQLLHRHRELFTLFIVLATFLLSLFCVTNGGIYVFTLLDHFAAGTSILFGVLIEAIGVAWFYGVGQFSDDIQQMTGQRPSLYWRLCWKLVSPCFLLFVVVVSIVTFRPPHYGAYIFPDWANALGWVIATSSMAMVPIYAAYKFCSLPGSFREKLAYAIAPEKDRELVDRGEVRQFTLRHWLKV

Take `Cn1c(=O)c2c(c3cc(Nc4ccnc(F)c4Cl)ccc31)N[C@@H](C1CC1)C(F)(F)CO2` [compound 17, (S)-10-((3-chloro-2-fluoropyridin-4-yl)amino)-2-cyclopropyl-3,3-difluoro-7-methyl-1,2,3,4-tetrahydro-[1,4]oxazepino[2,3-c]quinolin-6(7H)-one]: the IC50 at ADRA1A, on DAT, against HTR3A and on HTR2A was over 10 µM throughout. The Emax on ADRA1A (ADRA1A, Calcium Flux, Antagonist, read-out: Max Response) turned out to be 0%; on DAT (DAT, Transporter, Blocker, read-out: Max Response) it was 0%; on KvLQT1/minK (read-out: Max Response), 1.07%; on HTR3A (HTR3A, Ion Channel, Blocker, read-out: Max Response), 0%; at HTR2A (HTR2A, Calcium Flux, Antagonist, read-out: Max Response) it was 5.28%; on CNR2 (CNR2, cAMP, Agonist, read-out: Max Response), 77.7%. For the same molecule, the EC50 (usually the concentration at which the effect is half-maximal) at KvLQT1/minK (read-out: RC50 (EC50)) is over 10 µM; on CNR2 it was 1.4 µM. For the same molecule, in the assay on ARID3A mRNA, the “ARID3A mRNA expression in tumor xenografts” value was “significant increase in ARID3A mRNA expression”. In addition, growth in the assay on SU-DHL-4 was halved (GI50) at 1.38 µM. Further, the Hill on CNR2 (CNR2, cAMP, Agonist) is 0.61.

For the origin of these results see paper PMC10150366, “Discovery of an In Vivo Chemical Probe for BCL6 Inhibition by Optimization of Tricyclic Quinolinones” (Journal of Medicinal Chemistry, 2023).
